The text below walks through data of US20090214529A9, “KINESIN INHIBITORS” (TaiGen Biotechnology Co., Ltd., priority 2007, published 2009).

pIC50: −log10 of the molar value.

In general, pIC50 refers to the negative decadic logarithm of the IC50, by convention in mol/L.

One test relates to Human Colo205 cells. The test can be described thus: Cell cycle arrest assay (flowcytometry, propidium iodide). Format: cell-based. To be noted: DNA content by flowcytometry. The method, then: The efficacy of a test compound to arrest cells as a KSP inhibitor was determined by flowcytometry analysis. Human Colo205 cells were grown in 6-well plates and treated the next day with the test compound for various time lengths. They were then scraped from plates using a rubber policeman, washed with PBS, and centrifuged at 1,000 rpm for 5 minutes. 1 ML of a buffer containing 10 μM of propidium iodide and 50 ug/ml of RNase A was used to re-suspend the cells. The cells were subsequently incubated in this buffer for 10 minutes at room temperature in the dark, passed through a filter to remove cell clumps, and observed under a Coulter Epics XL-MCL Training Modules flowcytometer.

Another test concerns tumor cell. Kind of test: Cytotoxicity assay (MTS). Format: cell-based. To be noted: 72 h; incubation for three days; read-out: IC50, tumor cell growth inhibition (MTS). A digest of the protocol: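 Tumour cells seeded overnight, then exposed to varying compound concentrations for three days. Viability read by MTS/PMS conversion to formazan (2 h, 37 °C, absorbance 490 nm). Results given as blank-corrected T/C (%) against vehicle controls.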

`Cc1ccc(C(=O)N(CCN)C(c2nc3c(oc4ccc(F)cc43)c(=O)n2Cc2ccccc2)C(C)C)cc1` (stereo not drawn) [Compound 62]: in the test with Human Colo205 cells, the “shift in cell cycle population” value was “shift in the population of cells from a G0/G1 stage (2N DNA content) to a G2/M stage (4N DNA content)”. As to `Cc1ccc(C(=O)N(CCN)C(c2nc3c(oc4ccc(F)cc43)c(=O)n2Cc2ccc(Br)s2)C(C)C)cc1` (stereo not drawn) [Compound 66], in the test with Human Colo205 cells, the “shift in cell cycle population” value is “shift in the population of cells from a G0/G1 stage (2N DNA content) to a G2/M stage (4N DNA content)”. For the same compound, in the test with tumor cell, the pIC50 was greater than 4.52. `Cc1ccc(C(=O)N(CCN)C(c2nc3c(oc4ccc(F)cc43)c(=O)n2Cc2ccc(Br)o2)C(C)C)cc1` (stereo not drawn) [Compound 81]: the “shift in cell cycle population” value in the test with Human Colo205 cells was “shift in the population of cells from a G0/G1 stage (2N DNA content) to a G2/M stage (4N DNA content)”. Besides, the pIC50 in the test with tumor cell was greater than 4.52.

As for `Cc1ccc(C(=O)N(CCN)[C@@H](c2nc3c(oc4ccc(F)cc43)c(=O)n2Cc2ccco2)C(C)C)cc1F` [Compound 186], the pIC50 in the test on tumor cell was greater than 4.52. `Cc1ccc(C(=O)N(CCN)[C@@H](c2nc3c(oc4ccc(F)cc43)c(=O)n2Cc2cccc(F)c2)C(C)C)cc1` [Compound 187]: the pIC50 with tumor cell was greater than 4.52. Same read-out and setting: then `Cc1ccc(C(=O)N(CCN)[C@@H](c2nc3c(oc4ccc(F)cc43)c(=O)n2Cc2cccc(F)c2)C(C)C)cc1F` [Compound 188], with greater than 4.52; and `Cc1ccc(C(=O)N(CCN)[C@@H](c2nc3c(oc4ccc(F)cc43)c(=O)n2Cc2ccc(Cl)o2)C(C)C)cc1` [Compound 189], with greater than 4.52. With `Cc1ccc(C(=O)N(CCN)[C@@H](c2nc3c(oc4ccc(F)cc43)c(=O)n2Cc2ccc(Cl)o2)C(C)C)cc1F` [Compound 190], the pIC50 with tumor cell was greater than 4.52. On the same count and under the same terms, then `Cc1ccc(C(=O)N(CCN)[C@@H](c2nc3c(oc4ccc(F)cc43)c(=O)n2Cc2ccccc2)C(C)C)cc1` [Compound 191], with greater than 4.52; and `Cc1ccc(C(=O)N(CCN)[C@@H](c2nc3c(oc4ccc(F)cc43)c(=O)n2Cc2ccccc2)C(C)C)cc1F` [Compound 192], with greater than 4.52. Consider `CC(C)[C@H](c1nc2c(oc3ccc(F)cc32)c(=O)n1Cc1ccccc1)N(CCN)C(=O)c1ccc(Cl)cc1` [Compound 193], for which the pIC50 with tumor cell is greater than 4.52.

As to `Cc1ccc(C(=O)N(CCN)[C@@H](c2nc3c(oc4ccc(F)cc43)c(=O)n2Cc2ccsc2)C(C)C)cc1` [Compound 194], the pIC50 with tumor cell is greater than 4.52.

`Cc1ccc(C(=O)N(CCN)[C@@H](c2nc3c(oc4ccc(F)cc43)c(=O)n2Cc2ccsc2)C(C)C)cc1F` [Compound 195]: in the test on tumor cell, the pIC50 was greater than 4.52.

As for `Cc1ccc(C(=O)N(CCN)[C@@H](c2nc3c(oc4ccc(F)cc43)c(=O)n2Cc2ccoc2)C(C)C)cc1` [Compound 196], the pIC50 with tumor cell was greater than 4.52. As to `Cc1ccc(C(=O)N(CCN)[C@@H](c2nc3c(oc4ccc(F)cc43)c(=O)n2Cc2ccoc2)C(C)C)cc1F` [Compound 197], in the test on tumor cell, the pIC50 is greater than 4.52. Still for that read-out and setting: to `CC(C)[C@H](c1nc2c(oc3ccc(F)cc32)c(=O)n1Cc1ccoc1)N(CCN)C(=O)c1ccc(Cl)cc1` [Compound 198] belongs greater than 4.52.

Turning to `Cc1ccc(C(=O)N(CCN)[C@@H](c2nc3c(oc4ccc(F)cc43)c(=O)n2Cc2cccs2)C(C)C)cc1` [Compound 199], in the test on tumor cell, the negative-log IC50 (pIC50) was greater than 4.52.

As for `Cc1ccc(C(=O)N(CCN)[C@@H](c2nc3c(oc4ccc(F)cc43)c(=O)n2Cc2cccs2)C(C)C)cc1F` [Compound 200], the pIC50 with tumor cell is greater than 4.52. Take `CC(C)[C@H](c1nc2c(oc3ccc(F)cc32)c(=O)n1Cc1cccs1)N(CCN)C(=O)c1ccc(Br)cc1` [Compound 201]: the pIC50 with tumor cell was greater than 4.52. As to `CC(C)[C@H](c1nc2c(oc3ccc(F)cc32)c(=O)n1Cc1ccsc1)N(CCN)C(=O)c1ccc(Br)cc1` [Compound 202], in the test on tumor cell, the pIC50 is greater than 4.52.

As to `CC(C)[C@H](c1nc2c(oc3ccc(F)cc32)c(=O)n1Cc1cccc(F)c1)N(CCN)C(=O)c1ccc(Br)cc1` [Compound 203], the pIC50 in the test with tumor cell was greater than 4.52.

As for `CC(C)[C@H](c1nc2c(oc3ccc(F)cc32)c(=O)n1Cc1ccc(Cl)o1)N(CCN)C(=O)c1ccc(Br)cc1` [Compound 204], the pIC50 in the test with tumor cell is greater than 4.52.

Consider `CC(C)[C@H](c1nc2c(oc3ccc(F)cc32)c(=O)n1Cc1ccccc1)N(CCN)C(=O)c1ccc(Br)cc1` [Compound 205], for which the pIC50 in the test with tumor cell was greater than 4.52. Still for that read-out and setting: then `Cc1ccc(C(=O)N(CCN)[C@@H](c2nc3c(oc4ccc(F)cc43)c(=O)n2Cc2ccccc2)C(C)C)c(F)c1F` [Compound 206], with greater than 4.52.

As for `CC(C)[C@H](c1nc2c(oc3ccc(F)cc32)c(=O)n1Cc1ccccc1)N(CCN)C(=O)c1ccc(C(F)(F)F)cc1` [Compound 207], the pIC50 with tumor cell is greater than 4.52. Same read-out and setting: then `Cc1ccc(C(=O)N(CCN)[C@@H](c2nc3c(oc4ccc(F)cc43)c(=O)n2Cc2ccc(Br)s2)C(C)C)c(F)c1F` [Compound 209], with greater than 4.52. On the same count and under the same terms, to `CC(C)[C@H](c1nc2c(oc3ccc(F)cc32)c(=O)n1Cc1ccc(Br)s1)N(CCN)C(=O)c1ccc(Br)cc1` [Compound 210] belongs greater than 4.52; to `Cc1ccc(C(=O)N(CCCN)[C@@H](c2nc3c(oc4ccc(F)cc43)c(=O)n2Cc2cc(C)cs2)C(C)C)cc1` [Compound 211], greater than 4.52; to `Cc1ccc(C(=O)N(CCN)[C@@H](c2nc3c(oc4ccc(F)cc43)c(=O)n2Cc2ccc(C(F)(F)F)o2)C(C)C)cc1` [Compound 213], greater than 4.52. The same measure, in the same setting: to `Cc1ccc(C(=O)N(CCN)[C@@H](c2nc3c(oc4ccc(F)cc43)c(=O)n2Cc2ccc(C(F)(F)F)o2)C(C)C)cc1F` [Compound 214] belongs greater than 4.52; to `Cc1ccc(C(=O)N(CCN)[C@@H](c2nc3c(oc4ccc(F)cc43)c(=O)n2Cc2cc(Br)cs2)C(C)C)cc1` [Compound 215], greater than 4.52. As for `Cc1ccc(C(=O)N(CCN)[C@@H](c2nc3c(oc4ccc(F)cc43)c(=O)n2Cc2cc(Br)co2)C(C)C)cc1` [Compound 217], in the test with tumor cell, the pIC50 was greater than 4.52. On to `Cc1ccc(C(=O)N(CCN)[C@@H](c2nc3c(oc4ccc(F)cc43)c(=O)n2Cc2cc(Br)co2)C(C)C)cc1F` [Compound 218], for which, in the test with tumor cell, the pIC50 is greater than 4.52. The same measure, in the same setting: then `Cc1ccc(C(=O)N(CCN)[C@@H](c2nc3c(oc4ccc(F)cc43)c(=O)n2Cc2ccc(I)s2)C(C)C)cc1` [Compound 219], with greater than 4.52; and `CC[C@@H](C)[C@H](c1nc2c(oc3ccc(F)cc32)c(=O)n1Cc1ccc(Br)o1)N(CCN)C(=O)c1ccc(C)cc1` [Compound 220], with greater than 4.52. Still for that read-out and setting: then `Cc1ccc(C(=O)N(CCN)[C@@H](c2nc3c(oc4ccc(F)cc43)c(=O)n2Cc2cc(C)cs2)C2CC2)cc1` [Compound 222], with greater than 4.52. Still for that read-out and setting: to `Cc1ccc(C(=O)N(CCN)[C@@H](c2nc3c(oc4ccc(F)cc43)c(=O)n2Cc2ccc(Br)o2)C2CC2)cc1` [Compound 223] belongs greater than 4.52. Consider `Cc1ccc(C(=O)N(CCN)[C@@H](c2nc3c(oc4ccc(F)cc43)c(=O)n2Cc2ccc(Cl)o2)C2CC2)cc1` [Compound 224], for which the pIC50 in the test with tumor cell is greater than 4.52. Turning to `Cc1ccc(C(=O)N(CCN)[C@@H](c2nc3c(oc4ccc(F)cc43)c(=O)n2Cc2ccccc2)C2CC2)cc1` [Compound 225], the pIC50 in the test on tumor cell was greater than 4.52. On the same count and under the same terms, then `Cc1ccc(C(=O)N(CCN)[C@@H](c2nc3c(oc4ccc(F)cc43)c(=O)n2Cc2cccs2)C2CC2)cc1` [Compound 226], with greater than 4.52.
